Measured values from patent US9181305B2, “Exendin-4 peptide analogues” (SANOFI, priority 2012, dated 2015).
*1 amine or outer side, *2 acyl side, *3 side chain or, on linkers, in order; H or OH if unused. Where a SMILES comes first, the peptide text is derived from it. Side-chain parts run from the residue outwards. [ ]: non-standard residue; d: D form. The star is where a group is joined. γGlu = O=C(O)[C@H](CCC(=O)[*:2])N[*:1]; Palmitoyl = CCCCCCCCCCCCCCCC(=O)*; Aib = CC(C)(N)C(=O)O

What follows are compounds tested against T1, human GLP-1 receptor (hGLP-1 R) (Homo sapiens, UniProt P43220) (assay: cAMP response (HTRF) of HEK-293 cells stably expressing human GLP-1 receptor). Settings: HEK-293 cells expressing human GLP-1 receptor, cAMP formation.
T1 construct: expressed in transfected cells; host or cells: HEK-293
T1 sequence (P43220 24-463): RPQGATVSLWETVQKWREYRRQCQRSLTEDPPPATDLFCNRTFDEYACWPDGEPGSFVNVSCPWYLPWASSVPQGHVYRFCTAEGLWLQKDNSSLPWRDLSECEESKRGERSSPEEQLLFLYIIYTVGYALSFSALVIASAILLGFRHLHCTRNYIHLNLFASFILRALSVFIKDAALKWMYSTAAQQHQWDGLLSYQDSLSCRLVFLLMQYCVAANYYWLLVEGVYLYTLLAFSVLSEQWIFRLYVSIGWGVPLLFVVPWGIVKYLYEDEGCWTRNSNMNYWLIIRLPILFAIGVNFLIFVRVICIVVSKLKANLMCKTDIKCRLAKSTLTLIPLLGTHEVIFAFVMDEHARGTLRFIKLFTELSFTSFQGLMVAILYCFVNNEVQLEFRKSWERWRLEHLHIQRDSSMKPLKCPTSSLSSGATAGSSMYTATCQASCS
Assay type: cell-based
Description: cAMP content of cells was determined using a kit from Cisbio Corp. (cat. no. 62AM4PEC) based on HTRF (Homogenous Time Resolved Fluorescence). For preparation, cells were split into T175 culture flasks and grown overnight to near confluency in medium (DMEM/10% FBS). Medium was then removed and cells washed with PBS lacking calcium and magnesium, followed by proteinase treatment with accutase (Sigma-Aldrich cat. no. A6964). Detached cells were washed and resuspended in assay buffer (1×HBSS; 20 mM HEPES, 0.1% BSA, 2 mM IBMX) and cellular density determined. […] For measurement, 25 μl of test compound in assay buffer was added to the wells, followed by incubation for 30 minutes at room temperature.

Structure (SMILES) | EC50
CCCCCCCCCCCCCCCC(=O)N[C@@H](CCC(=O)NCCCC[C@H](NC(=O)[C@H](CO)NC(=O)[C@@H]1CCCN1C(=O)[C@@H]1CCCN1C(=O)[C@@H]1CCCN1C(=O)[C@H](C)NC(=O)CNC(=O)[C@H](CO)NC(=O)[C@H](CO)NC(=O)[C@@H]1CCCN1C(=O)CNC(=O)CNC(=O)[C@H](CO)NC(=O)[C@H](CCCCN)NC(=O)[C@H](CC(C)C)NC(=O)[C@H](Cc1c[nH]c2ccccc12)NC(=O)[C@H](CCC(=O)O)NC(=O)[C@@H](NC(=O)[C@H](Cc1ccccc1)NC(=O)[C@H](CC(=O)O)NC(=O)[C@H](CCC(N)=O)NC(=O)[C@H](C)NC(=O)[C@H](C)NC(=O)[C@H](CCCNC(=N)N)NC(=O)[C@H](CO)NC(=O)[C@H](CCC(=O)O)NC(=O)[C@H](CCSC)NC(=O)[C@H](CCC(N)=O)NC(=O)[C@H](CCCCN)NC(=O)[C@H](CO)NC(=O)[C@H](CC(C)C)NC(=O)[C@H](CC(=O)O)NC(=O)[C@H](CO)NC(=O)[C@@H](NC(=O)[C@H](Cc1ccccc1)NC(=O)[C@@H](NC(=O)CNC(=O)[C@H](CCC(N)=O)NC(=O)[C@@H](CO)NC(=O)[C@@H](N)Cc1c[nH]cn1)[C@@H](C)O)[C@@H](C)O)[C@@H](C)CC)C(N)=O)C(=O)O [(103)] (H-H[dS]QGTFTSDLSKQMESRAAQDFIEWLKSGGPSSGAPPPSK([γGlu-Palmitoyl])-NH2) | 3.7 pM
CCCCCCCCCCCCCCCC(=O)N[C@@H](CCC(=O)NCCCC[C@H](NC(=O)[C@H](CO)NC(=O)[C@@H]1CCCN1C(=O)[C@@H]1CCCN1C(=O)[C@@H]1CCCN1C(=O)[C@H](C)NC(=O)CNC(=O)[C@H](CO)NC(=O)[C@H](CO)NC(=O)[C@@H]1CCCN1C(=O)CNC(=O)CNC(=O)[C@H](C)NC(=O)[C@H](CCCCN)NC(=O)[C@H](CC(C)C)NC(=O)[C@H](Cc1c[nH]c2ccccc12)NC(=O)[C@H](CCC(=O)O)NC(=O)[C@@H](NC(=O)[C@H](Cc1ccccc1)NC(=O)[C@H](CC(=O)O)NC(=O)[C@H](CCCCN)NC(=O)[C@H](C)NC(=O)[C@H](C)NC(=O)[C@H](CCC(=O)O)NC(=O)[C@H](CCC(=O)O)NC(=O)[C@H](CCC(=O)O)NC(=O)[C@H](CCSC)NC(=O)[C@H](CCC(N)=O)NC(=O)[C@H](CCCCN)NC(=O)[C@H](CO)NC(=O)[C@H](CC(C)C)NC(=O)[C@H](CC(=O)O)NC(=O)[C@H](CO)NC(=O)[C@@H](NC(=O)[C@H](Cc1ccccc1)NC(=O)[C@@H](NC(=O)CNC(=O)[C@H](CCC(N)=O)NC(=O)[C@@H](CO)NC(=O)[C@@H](N)Cc1c[nH]cn1)[C@@H](C)O)[C@@H](C)O)[C@@H](C)CC)C(N)=O)C(=O)O [(110)] (H-H[dS]QGTFTSDLSKQMEEEAAKDFIEWLKAGGPSSGAPPPSK([γGlu-Palmitoyl])-NH2) | 2.9 pM
CCCCCCCCCCCCCCCC(=O)N[C@@H](CCC(=O)NCCCC[C@H](NC(=O)[C@H](CO)NC(=O)[C@@H]1CCCN1C(=O)[C@@H]1CCCN1C(=O)[C@@H]1CCCN1C(=O)[C@H](C)NC(=O)CNC(=O)[C@H](CO)NC(=O)[C@H](CO)NC(=O)[C@@H]1CCCN1C(=O)CNC(=O)CNC(=O)[C@H](C)NC(=O)[C@H](CCCCN)NC(=O)[C@H](CC(C)C)NC(=O)[C@H](Cc1c[nH]c2ccccc12)NC(=O)[C@H](CCC(=O)O)NC(=O)[C@@H](NC(=O)[C@H](Cc1ccccc1)NC(=O)[C@H](CC(=O)O)NC(=O)[C@H](CCC(N)=O)NC(=O)[C@H](C)NC(=O)[C@H](C)NC(=O)C(C)(C)NC(=O)[C@H](CO)NC(=O)[C@H](CCC(=O)O)NC(=O)[C@H](CCSC)NC(=O)[C@H](CCC(N)=O)NC(=O)[C@H](CCCCN)NC(=O)[C@H](CO)NC(=O)[C@H](CC(C)C)NC(=O)[C@H](CC(=O)O)NC(=O)[C@H](CO)NC(=O)[C@@H](NC(=O)[C@H](Cc1ccccc1)NC(=O)[C@@H](NC(=O)CNC(=O)[C@H](CCC(N)=O)NC(=O)[C@@H](CO)NC(=O)[C@@H](N)Cc1c[nH]cn1)[C@@H](C)O)[C@@H](C)O)[C@@H](C)CC)C(N)=O)C(=O)O [(111)] (H-H[dS]QGTFTSDLSKQMES[Aib]AAQDFIEWLKAGGPSSGAPPPSK([γGlu-Palmitoyl])-NH2) | 4.1 pM
CCCCCCCCCCCCCCCC(=O)N[C@@H](CCC(=O)NCCCC[C@H](NC(=O)[C@H](CO)NC(=O)[C@@H]1CCCN1C(=O)[C@@H]1CCCN1C(=O)[C@@H]1CCCN1C(=O)[C@H](C)NC(=O)CNC(=O)[C@H](CO)NC(=O)[C@H](CO)NC(=O)[C@@H]1CCCN1C(=O)CNC(=O)CNC(=O)[C@H](C)NC(=O)[C@H](CCCCN)NC(=O)[C@H](CC(C)C)NC(=O)[C@H](Cc1c[nH]c2ccccc12)NC(=O)[C@H](CCC(=O)O)NC(=O)[C@@H](NC(=O)[C@H](Cc1ccccc1)NC(=O)[C@H](CC(C)C)NC(=O)[C@H](CCC(N)=O)NC(=O)[C@H](C)NC(=O)[C@H](C)NC(=O)C(C)(C)NC(=O)[C@H](CO)NC(=O)[C@H](CCC(=O)O)NC(=O)[C@H](CCSC)NC(=O)[C@H](CCC(N)=O)NC(=O)[C@H](CCCCN)NC(=O)[C@H](CO)NC(=O)[C@H](CC(C)C)NC(=O)[C@H](CC(=O)O)NC(=O)[C@H](CO)NC(=O)[C@@H](NC(=O)[C@H](Cc1ccccc1)NC(=O)[C@@H](NC(=O)CNC(=O)[C@H](CCC(N)=O)NC(=O)[C@@H](CO)NC(=O)[C@@H](N)Cc1c[nH]cn1)[C@@H](C)O)[C@@H](C)O)[C@@H](C)CC)C(N)=O)C(=O)O [(112)] (H-H[dS]QGTFTSDLSKQMES[Aib]AAQLFIEWLKAGGPSSGAPPPSK([γGlu-Palmitoyl])-NH2) | 9.7 pM
CCCCCCCCCCCCCCCC(=O)N[C@@H](CCC(=O)NCCCC[C@H](NC(=O)[C@H](CO)NC(=O)[C@@H]1CCCN1C(=O)[C@@H]1CCCN1C(=O)[C@@H]1CCCN1C(=O)[C@H](C)NC(=O)CNC(=O)[C@H](CO)NC(=O)[C@H](CO)NC(=O)[C@@H]1CCCN1C(=O)CNC(=O)CNC(=O)[C@H](C)NC(=O)[C@H](CCCCN)NC(=O)[C@H](CC(C)C)NC(=O)[C@H](Cc1c[nH]c2ccccc12)NC(=O)[C@H](CCC(=O)O)NC(=O)[C@@H](NC(=O)[C@H](Cc1ccccc1)NC(=O)[C@H](CC(C)C)NC(=O)[C@H](CCC(N)=O)NC(=O)[C@H](C)NC(=O)[C@H](C)NC(=O)[C@H](CCC(=O)O)NC(=O)[C@H](CO)NC(=O)[C@H](CCC(=O)O)NC(=O)[C@H](CCSC)NC(=O)[C@H](CCC(N)=O)NC(=O)[C@H](CCCCN)NC(=O)[C@H](CO)NC(=O)[C@H](CC(C)C)NC(=O)[C@H](CC(=O)O)NC(=O)[C@H](CO)NC(=O)[C@@H](NC(=O)[C@H](Cc1ccccc1)NC(=O)[C@@H](NC(=O)CNC(=O)[C@H](CCC(N)=O)NC(=O)[C@@H](CO)NC(=O)[C@@H](N)Cc1c[nH]cn1)[C@@H](C)O)[C@@H](C)O)[C@@H](C)CC)C(N)=O)C(=O)O [(114)] (H-H[dS]QGTFTSDLSKQMESEAAQLFIEWLKAGGPSSGAPPPSK([γGlu-Palmitoyl])-NH2) | 3.1 pM
